Tested on: various cancer cell lines
Assay: Cell viability by Alamar Blue assay
Format: cell-based
Description: The effect of Compound I on cell viability was assessed by Alamar Blue assay of metabolic activity in various cancer cell lines.

For `Cc1cnc(CNC(=O)c2c(=O)c3ccc(N4CCCN(C)CC4)nc3n3c2sc2ccccc23)cn1` [Compound I, 2-(4-Methyl-[1,4]diazepan-1-yl)-5-oxo-5H-7-thia-1,11b-diaza-benzo[c]fluorene-6-carboxylic acid (5-methyl-pyrazin-2-ylmethyl)-amide], the EC50 (A7, Melanoma) was 23 nM, the EC50 (BJ-hTERT, Normal) was 5170 nM and the EC50 (CCD-1058Sk, Normal) was 4710 nM. The EC50 (CCD-1068Sk, Normal) was 5070 nM, the EC50 (CCD-1094Sk, Normal) was 4810 nM and the EC50 (CD-1096Sk, Normal) was 5260 nM. It also gave an EC50 (Homo sapiens, A549, A549, Lung) of 4900 nM, an EC50 (Homo sapiens, A-375, A375, Melanoma) of 58 nM and an EC50 (Homo sapiens, BT-20, BT-20, Breast) of 335 nM. It also gave an EC50 (Homo sapiens, BT-474, BT-474, Breast) of 86 nM, an EC50 (Homo sapiens, BXPC-3, BxPC-3, Pancreatic) of 664 nM and an EC50 (Homo sapiens, COLO 205, COLO-205, Colon) of 96 nM. It also gave an EC50 (Homo sapiens, Daudi, Lymphoma) of 142 nM, an EC50 (Homo sapiens, EOL1, EOL-1, Leukemia) of 3 nM and an EC50 (Homo sapiens, HCT-116, HCT-116, Colon) of 164 nM. It also gave an EC50 (Homo sapiens, HL60/MX2, HL60/MX2, Leukemia) of 147 nM, an EC50 (Homo sapiens, HL-60, HL60, Leukemia) of 83 nM and an EC50 (Homo sapiens, HT-29, HT-29, Colon) of 741 nM. It also gave an EC50 (Homo sapiens, Hs-578T, Hs 578.T, Breast) of 1650 nM, an EC50 (Homo sapiens, Jurkat, Leukemia) of 64 nM and an EC50 (Homo sapiens, K562, K562, Leukemia) of 104 nM. For the same compound, the EC50 (Homo sapiens, LNCaP, Prostate) was 5500 nM, the EC50 (Homo sapiens, MCF7, MCF 7, Breast) was 347 nM and the EC50 (Homo sapiens, MDA-MB-175-VII, Breast) was 2780 nM. The EC50 (Homo sapiens, MDA-MB-231, MDA-MB-231, Breast) was 83 nM, the EC50 (Homo sapiens, MDA-MB-361, MDA-MB-361, Breast) was 2100 nM and the EC50 (Homo sapiens, MDA-MB-453, MDA-MB-453, Breast) was 140 nM. For the same compound, the EC50 (Homo sapiens, MDA-MB-468, MDA-MB-468, Breast) was 171 nM, the EC50 (Homo sapiens, MIA PaCa-2, MIA PaCa-2, Pancreatic) was 74 nM and the EC50 (Homo sapiens, MOLT-3, MOLT-3, Leukemia) was 6 nM. It also gave an EC50 (Homo sapiens, MV4-11, MV 4;11, Leukemia) of 12 nM, an EC50 (Homo sapiens, NCI-H460, NCI-H460, Lung) of 38 nM and an EC50 (Homo sapiens, NCI-H520, NCI-H520, Lung) of 70 nM. For the same compound, the EC50 (Homo sapiens, NCI-H1299, NCI-H1299, Lung) was 55 nM, the EC50 (Homo sapiens, NCI-H2170, NCI-H2170, Lung) was 194 nM and the EC50 (Homo sapiens, PANC-1, PANC-1, Pancreatic) was 5000 nM. The EC50 (Homo sapiens, RPMI-8226, RPMI-8226, Myeloma) was 68 nM, the EC50 (Homo sapiens, Raji, Lymphoma) was 133 nM and the EC50 (Homo sapiens, Ramos, Lymphoma) was 66 nM. It also gave an EC50 (Homo sapiens, SAOS-2, Saos-2, Osteosarcoma) of 5000 nM, an EC50 (Homo sapiens, SK-BR-3, SKBr3, Breast) of 134 nM and an EC50 (Homo sapiens, SK-MEL-24, SK-MEL-24, Melanoma) of 147 nM. The EC50 (Homo sapiens, SK-MES-1, SK-MES-1, Lung) was 1260 nM, the EC50 (Homo sapiens, SK-OV-3, SK-OV-3, Ovarian) was 78 nM and the EC50 (Homo sapiens, SUM149PT, SUM 149PT, IBC (Invasive ductal breast carcinoma (inflammatory))) was 751 nM. It also gave an EC50 (Homo sapiens, T47D, Breast) of 2340 nM, an EC50 (Homo sapiens, THP-1, THP-1, Leukemia) of 47 nM and an EC50 (Homo sapiens, U2OS, Osteosarcoma) of 281 nM. The EC50 (Homo sapiens, UACC-812, UACC-812, Breast) was 1830 nM, the EC50 (Homo sapiens, ZR-75-1, ZR-75-1, Breast) was 123 nM and the EC50 (Hs 605.T, Breast) was 116 nM. It also gave an EC50 (NK92mi, Lymphoma) of 165 nM, an EC50 (PC-3, Prostate) of 1100 nM and an EC50 (SEM, Leukemia) of 18 nM. The EC50 (SR, Leukemia) was 5 nM, the EC50 (SUM190PT, SUM 190PT, IBC (Invasive ductal breast carcinoma (inflammatory))) was 583 nM and the “antiproliferative activity (in words)” value (multiple cancer cell lines) was “broad spectrum antiproliferative activity”. For the same compound, the “activity in normal cells (in words)” value (normal cells) was “significantly less active”.

Source: patent publication US11524012B1, “Quinolone analogs and their salts, compositions, and method for their use” (Senhwa Biosciences, Inc., priority 2018, dated 2022)
